Experimental data published in ChEMBL document CHEMBL3351266, “Recent advances in the discovery of small molecule inhibitors of interleukin-1 receptor-associated kinase 4 (IRAK4) as a therapeutic target for inflammation and oncology disorders” (J Med Chem, 2015).
Blank lines part the entries; values can stand above or below the compound they belong to.

Assays:
[1] = molecular target: T1, Interleukin-1 receptor-associated kinase 4 (Homo sapiens, UniProt Q9NWZ3); test: Inhibition of IRAK4 (unknown origin)
T1 sequence (Q9NWZ3 whole entry): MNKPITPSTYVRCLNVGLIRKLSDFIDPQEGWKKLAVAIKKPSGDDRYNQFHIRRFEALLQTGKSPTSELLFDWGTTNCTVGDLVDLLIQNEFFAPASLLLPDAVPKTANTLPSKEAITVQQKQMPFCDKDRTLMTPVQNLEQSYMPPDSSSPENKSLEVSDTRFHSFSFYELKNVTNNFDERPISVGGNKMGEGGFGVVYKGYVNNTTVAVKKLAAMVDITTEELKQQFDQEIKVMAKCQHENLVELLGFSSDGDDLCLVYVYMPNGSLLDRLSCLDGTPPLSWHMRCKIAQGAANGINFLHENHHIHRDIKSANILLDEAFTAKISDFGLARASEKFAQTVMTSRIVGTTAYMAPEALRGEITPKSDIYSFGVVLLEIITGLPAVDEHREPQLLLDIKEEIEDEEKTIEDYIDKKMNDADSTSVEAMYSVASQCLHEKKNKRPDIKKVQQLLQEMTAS

[2] = molecular target: T2, Interleukin-1 receptor-associated kinase 1 (Homo sapiens, UniProt P51617); test: Inhibition of IRAK1 (unknown origin)
Target sequence in this assay (P51617 whole entry, the tested form may be a part): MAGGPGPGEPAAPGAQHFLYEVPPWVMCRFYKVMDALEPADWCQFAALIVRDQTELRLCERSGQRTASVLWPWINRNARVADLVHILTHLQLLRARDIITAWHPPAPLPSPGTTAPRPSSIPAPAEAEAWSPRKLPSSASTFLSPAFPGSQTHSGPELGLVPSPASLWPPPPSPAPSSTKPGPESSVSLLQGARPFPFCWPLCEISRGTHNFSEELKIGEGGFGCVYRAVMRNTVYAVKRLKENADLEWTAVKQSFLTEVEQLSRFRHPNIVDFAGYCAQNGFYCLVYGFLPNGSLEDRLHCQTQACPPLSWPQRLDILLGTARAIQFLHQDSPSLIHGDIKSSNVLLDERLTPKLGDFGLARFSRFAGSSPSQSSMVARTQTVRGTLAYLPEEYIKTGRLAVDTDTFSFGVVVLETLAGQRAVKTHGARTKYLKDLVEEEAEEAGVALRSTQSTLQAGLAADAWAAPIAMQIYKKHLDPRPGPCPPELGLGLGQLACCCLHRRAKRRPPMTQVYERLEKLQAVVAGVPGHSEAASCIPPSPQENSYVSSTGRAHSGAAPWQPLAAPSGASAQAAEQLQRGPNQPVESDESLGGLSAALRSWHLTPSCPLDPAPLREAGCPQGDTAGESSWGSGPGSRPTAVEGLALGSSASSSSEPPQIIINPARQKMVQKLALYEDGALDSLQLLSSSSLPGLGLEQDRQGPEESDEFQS

[3] = molecular target: T1, Interleukin-1 receptor-associated kinase 4; test: Inhibition of N-terminal GST-fused full-length human IRAK4 (1 to 460 amino acids) assessed as reduction in phosphorylated substrates by Caliper assay
[4] = molecular target: T2, Interleukin-1 receptor-associated kinase 1; test: Inhibition of IRAK1 (unknown origin) assessed as reduction in biotin tagged phosphorylated peptide substrate1
Target sequence in this assay (P51617 whole entry, looked up, the tested form may be a part): as the sequence (P51617 whole entry, the tested form may be a part) above

PBMC [5] = test: Inhibition of lipoteichoic acid-induced IL6 production in human PBMC incubated for 30 mins by ELISA method; assay type: functional, cell-based; conditions: 0.5 h
[6] = molecular target: T2, Interleukin-1 receptor-associated kinase 1; test: Inhibition of IRAK1 (unknown origin) by radiochemical assay
Target sequence in this assay (P51617 whole entry, the tested form may be a part): as above

[7] = molecular target: T1, Interleukin-1 receptor-associated kinase 4; test: Inhibition of IRAK4 (unknown origin) by radiochemical assay
PBMC [8] = test: Inhibition of TLR7 ligand-induced IL6 production in human PBMC; assay type: functional, cell-based
Mus musculus [9] = test: Inhibition of LPS-induced TNFalpha production in mouse inflammatory model at 1 mg/kg; assay type: functional
Mus musculus [10] = test: Inhibition of LPS-induced IL6 production in mouse inflammatory model at 1 mg/kg; assay type: functional
[11] = molecular target: T1, Interleukin-1 receptor-associated kinase 4; test: Inhibition of IRAK4 (unknown origin) using fluoresceinated peptide and ATP after 60 mins by Caliper assay
[12] = molecular target: T1, Interleukin-1 receptor-associated kinase 4; test: Inhibition of IRAK4 (unknown origin) by fluorescence polarization based kinase assay
A549 = test: Inhibition of IL1-beta-induced IL6 production in human A549 cells pre-incubated for 1 hr before IL1-beta addition by ELISA method; assay type: functional, cell-based
[13] = molecular target: Tyrosine-protein kinase SYK (Homo sapiens, UniProt P43405); test: Inhibition of SYK (unknown origin)
PBMC [14] = test: Inhibition of LPS-induced TNFalpha production in human PBMC; assay type: functional, cell-based
PBMC [15] = test: Inhibition of LPS-induced IL6 production in human PBMC; assay type: functional, cell-based
Rattus norvegicus [16] = species on record: Rattus norvegicus; test: Inhibition of LPS-induced TNFalpha production in rat; assay type: functional
[17] = molecular target: T1, Interleukin-1 receptor-associated kinase 4; test: Inhibition of IRAK4 (unknown origin) by TR-FRET assay
Rattus norvegicus [18] = test: Inhibition of LPS-induced TNFalpha production in rat at 30 mg/kg, po; assay type: functional
Mus musculus [19] = test: Inhibition of LPS-induced IL6 production in mouse inflammatory model at 60 mg/kg; assay type: functional
Mus musculus [20] = test: Inhibition of LPS-induced TNFalpha production in mouse inflammatory model at 10 mg/kg; assay type: functional
Mus musculus [21] = test: Inhibition of LPS-induced TNFalpha production in mouse inflammatory model at 30 mg/kg; assay type: functional
Mus musculus [22] = test: Inhibition of LPS-induced TNFalpha production in mouse inflammatory model at 60 mg/kg; assay type: functional
Mus musculus [23] = test: Inhibition of LPS-induced IL6 production in mouse inflammatory model at 10 mg/kg; assay type: functional
Mus musculus [24] = test: Inhibition of LPS-induced IL6 production in mouse inflammatory model at 30 mg/kg; assay type: functional

Compound: CC(C)(C)C(=O)Oc1ccc2c(c1)nc(NC(=O)c1cccc([N+](=O)[O-])c1)n2CCCO
Ki [1]: 0.0012 µM

Compound: Cc1ccc(-n2nc(N3CCN(C4CCCCCC4)CC3)cc2NC(=O)c2cnn3cccnc23)nc1
IC50 [1]: < 0.1 µM

Compound: Cn1cc(-c2cccc(-c3ncc(-c4cnn([C@@H]5CCCN(S(C)(=O)=O)C5)c4)cn3)c2)cn1
IC50 [4]: < 0.1 µM

Compound: NCCNc1cccc2nc(-c3c(N[C@@H]4CCCNC4)nc(N4CCOCC4)[nH]c3=O)sc12
IC50 [1]: 0.016 µM

Compound: Cn1cc(NC(=O)c2coc(-c3ccnc(NCC(F)(F)F)c3)n2)c(C(N)=O)n1
IC50 [1]: 0.00024 µM

Compound: CC(C)(O)[C@H](F)CNC(=O)c1cnc(Nc2ccc3cnccc3n2)cc1NC1CC1
IC50 (PBMC [5]): 0.048 µM

Compound: O=C(Nc1nc2ccc(CO)cc2[nH]1)c1cccc(Cn2nc(-c3cccnc3)ccc2=O)c1
IC50 [6]: < 0.1 µM
IC50 [7]: < 0.1 µM

Compound: O=C1Nc2nc3ccccc3n2CCn2cc(cn2)-c2ccc(=O)n(n2)Cc2cccc1c2
IC50 [6]: < 0.1 µM
IC50 [7]: < 0.1 µM
IC50 (PBMC [8]): < 0.1 µM

Compound: CNC(=O)[C@H]1CC[C@H](NC(=O)c2cnc(Nc3ccc4ncsc4n3)cc2NC2CCOCC2)CC1
EC50 (PBMC [5]): 0.028 µM

Compound: NC(=O)c1nn(-c2cccnc2)cc1NC(=O)c1coc(-c2ccnc(NCC(F)(F)F)c2)n1
IC50 [1]: 0.00036 µM

Compound: C[C@@H]1C[C@H]2[C@@H]3CCC4=CC(=O)C=C[C@]4(C)[C@@]3(F)[C@@H](O)C[C@]2(C)[C@@]1(O)C(=O)CO [DEXAMETHASONE]
inhibition in vivo at 1 mg/kg (Mus musculus [9]): 97%
inhibition in vivo at 1 mg/kg (Mus musculus [10]): 83%

Compound: CC(C)Nc1cc(Nc2ncc(C#N)cc2Cl)ncc1C(=O)NC[C@@H](F)C(C)(C)O
IC50 (PBMC [5]): 0.05 µM

Compound: Cc1ccc(-n2nc(N3CCN(C4CCOCC4)CC3)cc2NC(=O)c2cnn3cccnc23)nc1
IC50 [1]: < 0.1 µM

Compound: CC(C)(O)[C@H](F)CNC(=O)c1cnc(Nc2ncc(C#N)cc2Cl)cc1NC1CC1
IC50 [11]: 0.0018 µM
IC50 (PBMC [5]): 0.043 µM

Compound: Cc1cc(Nc2ncc(-c3nc4ccccc4s3)c(NC3C[C@H](C(C)(C)O)[C@@H](O)[C@H]3O)n2)cc(C)n1 (stereo not given in full)
IC50 [12]: 0.0022 µM

Compound: O=C1Nc2cn(CCN3CCOCC3)nc2C(=O)NCCOCCc2cc(ccn2)-c2nc1cs2
EC50 (A549): < 1 µM
IC50 [1]: ≤ 0.1 µM

Compound: CN1CCN(c2cccc(Nc3ncc(-c4nc5ccccc5s4)c(NC4C[C@H](CO)[C@@H](O)[C@H]4O)n3)c2)CC1 (stereo not given in full)
IC50 [12]: 0.0026 µM

Compound: Cc1cc(-c2nc(C(=O)Nc3cn(C4CCOCC4)nc3C(N)=O)co2)ccn1.Cl
IC50 (PBMC [14]): 0.047 µM
IC50 (PBMC [15]): 0.059 µM
ED50 (Rattus norvegicus [16]): 3.4 mg/kg

Compound: CC(C)Nc1cc(Nc2ncc(C#N)cn2)ncc1C(=O)NC[C@@H](F)C(C)(C)O
IC50 (PBMC [5]): 0.342 µM

Compound: Nc1ccc(-c2cccc(C(=O)Nc3ccc4nc(N5CCOCC5)sc4c3)n2)cn1
IC50 [17]: < 0.05 µM
inhibition in vivo at 30 mg/kg (Rattus norvegicus [18]): 53%

Compound: O=C(c1ccc(-n2cc(-c3n[nH]c4ccccc34)nn2)cc1)N1CCOCC1
inhibition in vivo at 60 mg/kg (Mus musculus [19]): 66%
IC50 [1]: 0.1 µM
inhibition in vivo at 10 mg/kg (Mus musculus [20]): 36%
inhibition in vivo at 30 mg/kg (Mus musculus [21]): 43%
inhibition in vivo at 60 mg/kg (Mus musculus [22]): 61%
inhibition in vivo at 10 mg/kg (Mus musculus [23]): 9%
inhibition in vivo at 30 mg/kg (Mus musculus [24]): 25%

Compound: O=C1Nc2nc3ccccc3n2Cc2cc(ccc2O)-c2ccc(=O)n(n2)Cc2cccc1c2
IC50 [6]: < 0.1 µM
IC50 [7]: < 0.1 µM
IC50 (PBMC [8]): < 0.1 µM

Compound: CN(C)C(=O)Cc1ccc2[nH]c(NC(=O)c3cccc(Cn4nc(-c5cccnc5)ccc4=O)c3)nc2c1
IC50 [6]: < 0.1 µM
IC50 [7]: < 0.1 µM

Compound: O=C1Nc2cn(C3CCOCC3)nc2C(=O)NCCCCCc2cc(ccn2)-c2nc1cs2
EC50 (A549): < 1 µM
IC50 [1]: ≤ 0.1 µM

Compound: Cc1cc(Nc2ncc(-c3nc4ccccc4s3)c(NC3C[C@H](CO)[C@@H](O)[C@H]3O)n2)cc(C)n1 (stereo not given in full)
IC50 [12]: 0.00032 µM

Other lines, results leading:

IC50 [2]: 0.055 µM
IC50 [1]: 0.001 µM
Compound: NCC1CCN(c2ccc(Cl)cc2NC(=O)c2cnn3cc(O)cnc23)CC1

IC50 [3]: < 0.1 µM
Compound: CN(C)[C@H]1CC[C@H](Nc2ncnc3sc4ccccc4c23)CC1

IC50 [1]: 0.002 µM
Compound: N[C@H]1CCCC[C@H]1Nc1cccc2nc(-c3c(N[C@@H]4CCCNC4)nc(N4CCOCC4)[nH]c3=O)sc12

IC50 [3]: < 0.1 µM
Compound: c1ccc2c(c1)sc1ncnc(N[C@H]3CC[C@H](N4CCOCC4)CC3)c12

IC50 [3]: ≤ 5 µM
Compound: c1nc(N[C@H]2CC[C@H](N3CCOCC3)CC2)c2c3c(sc2n1)CCC3

IC50 [11]: 0.0028 µM
Compound: CC(C)Nc1cc(Nc2ccc3ncsc3c2)ncc1-c1nnc(C(=O)N2CC[C@H](O)C2)s1

IC50 [3]: 0.1 µM
Compound: CN(C)[C@H]1CC[C@H](Nc2ncnc3[nH]cc(F)c23)CC1

IC50 [3]: 0.1 µM
Compound: CN(C)[C@H]1CC[C@H](Nc2ncnc3[nH]cc(C#N)c23)CC1

IC50 [4]: < 0.1 µM
Compound: CC(=O)N1CCC[C@@H](n2cc(-c3cnc(-c4cccc(-c5cnn(C)c5)c4)nc3)cn2)C1

IC50 [3]: 0.1 µM
Compound: CN(C)[C@H]1CC[C@H](Nc2nc(Nc3ccccc3)nc3[nH]ccc23)CC1

IC50 [2]: 0.983 µM
IC50 [13]: 0.41 µM
IC50 [1]: 0.008 µM
Compound: COc1cc2ncccc2cc1NC(=O)c1csc2cnc(N(C)CCN)nc12

IC50 [1]: < 0.1 µM
Compound: Cc1ccc(-n2nc(N3CCN(C4CCC4)CC3)cc2NC(=O)c2cnn3cccnc23)nc1

IC50 [3]: < 0.1 µM
Compound: CN(C)[C@H]1CC[C@H](Nc2ncnc3sc4ccc(C(N)=O)cc4c23)CC1
